Measured values published in patent US20240197716A1, “TREATMENTS FOR CUSHING'S SYNDROME THAT DO NOT SIGNIFICANTLY AFFECT CARDIAC RHYTHMS” (Corcept Therapeutics Incorporated, priority 2022, published 2024).
Starred links: 1 amine or outer side, 2 acyl side, 3 side chain; linkers in the order of their positions; H or OH if unused. Non-standard residues stand in square brackets, D forms with d. Residues, ends and D or L forms follow the SMILES beside them. Groups on a side chain read outwards from the residue. *: point of attachment. Ethylenediamine = C(CN[*:2])N[*:1]; Hyp = O=C(O)[C@@H]1C[C@@H](O)CN1; Phg = N[C@H](C(=O)O)c1ccccc1; CO = O=C([*:1])[*:2]; Bn = c1ccc(C*)cc1

Key:
[1] = system: QT interval; conditions: in vivo; cited from earlier work
[2] = system: cardiac repolarization in healthy volunteers; assay: Thorough QT/QTc (TQT) study (NCT04795479), cardiodynamic Holter ECG
From the text: These studies included a randomized, partial double-blind, placebo- and positive-controlled, multiple-dose, 4-way crossover, thorough QT/QTc (TQT) study to investigate the effect of relacorilant on cardiac repolarization. These studies measured placebo-corrected change-from-baseline QTcF (ΔΔQTcF); change-from-baseline of QTcF, HR, and PR and QRS intervals (ΔQTcF, ΔHR, ΔPR, and ΔQRS); placebo-corrected change-from-baseline of HR, and PR and QRS intervals (ΔΔHR, ΔΔPR, and ΔΔQRS); categorical outliers for QTcF, HR, and PR and QRS intervals; the frequency of treatment-emergent changes of T-wave morphology and presence of U-waves; PK parameters of relacorilant and its metabolites (CORT125337, CORT125336, and CORT125295) and moxifloxacin; safety profiles, including AEs/SAEs, physical examination, clinical chemistry, hematology, urinalysis, ECG, and vital signs.
A phase 1, randomized, partial double-blind, crossover thorough QT study (NCT04795479) to assess the effect of multiple doses of relacorilant on cardiac repolarization in healthy volunteers. Participants were randomized to dosing sequences to receive relacorilant at therapeutic (400 mg QD, n=25) or supra-therapeutic (800 mg QD, n=28) doses, or placebo (n=29) for 5 days. Moxifloxacin (400 mg single dose, n=28) was used as a positive control.
Each subject received 4 treatments in a randomized sequence during the study period. Each dosing consisted of 8 capsules (except for moxifloxacin on Day 5), including: • Treatment T: Multiple oral doses of 400 mg relacorilant (4 capsules)+placebo for relacorilant (4 capsules) once daily for 5 days; • Treatment ST: Multiple oral doses of 800 mg relacorilant (8 capsules) once daily for 5 days; • Treatment P: Multiple oral doses of placebo for relacorilant (8 capsules) once daily for 5 days; • Treatment M: Multiple oral doses of placebo for relacorilant (8 capsules) once daily for 4 days and a final single oral dose of 400 mg moxifloxacin (one tablet) on Day 5.
In a portion of present study conducted in healthy subjects, a single dose of moxifloxacin (400 mg; Treatment M) on the last day of its respective treatment period was included as a positive control to determine the sensitivity of the study to detect small QTc changes. Relacorilant doses included both a therapeutic dose level (400 mg; Treatment T) and a supra-therapeutic dose level (800 mg; Treatment ST). The study was blinded to subjects, investigator, study staff, and sponsor with respect to relacorilant (Treatments T and ST) and placebo for relacorilant (Treatment P); it was open-labeled for moxifloxacin (Treatment M). Enrolled subjects were randomized to one of twelve (12) dosing sequences to receive 4 different treatments according to the assigned dosing sequence as shown below:
In each period, subjects were admitted to the clinical site in the morning of Day-1 and stayed in the site until the morning of Day 6. In the study periods when subjects were randomized to Treatment T, ST, or P, the applicable study product (400 mg or 800 mg relacorilant or placebo for relacorilant) were taken once daily in the morning for 5 consecutive days. During the dosing period of positive control (Treatment M), placebo for relacorilant were administered on Days 1 to 4 to align with the dosing schedule for the other three treatments and moxifloxacin were administered in an open-labeled manner as a single dose in the morning of Day 5. Therefore, the treatment on Days 1 to 4 were double-blinded; it was not known before the morning on Day 5 whether or not a subject was allocated to receive moxifloxacin. Each dosing period (from Periods 2 to 4) was separated from the previous period by a washout period of at least 10 days from Day 6 of the previous period to Day 1 (first dose) of the subsequent period to prevent a carryover effect. The final visit was on Day 6 of Period 4. A safety phone follow-up was scheduled at 7 days (±2 days) post the final visit/early termination (ET) visit.

[3] = Plasma concentrations in TQT study (LC-MS/MS, non-compartmental PK); type: in vivo, human; conditions: human, plasma, oral; 400 mg single dose; read-out: Geometric Mean Cmax
Method: PK analyses were performed using non-compartmental methods to obtain estimates of the following parameters, where possible: […] Day 1: Cmax, Tmax, AUClast, and AUC0-24; Day 5: Cmax, Tmax, Cmin, AUClast, AUC0-tau, Cavg, FI, and AR. For moxifloxacin: Cmax, Tmax, AUClast, and AUC0-24. […] PK blood sampling for Day 1 was completed prior to dosing on Day 2.

For NCCCC[C@@H]1NC(=O)[C@@H](Cc2c[nH]c3ccccc23)NC(=O)[C@H](c2ccccc2)NC(=O)[C@@H]2C[C@@H](OC(=O)NCCN)CN2C(=O)[C@H](Cc2ccccc2)NC(=O)[C@H](Cc2ccc(OCc3ccccc3)cc2)NC1=O [pasoreotide] (cyclo([Hyp]([CO-Ethylenediamine])[Phg][dW]KY(Bn)F)), the “effect on QT interval (literature)” value [1] is given as “associated with QT interval prolongation”.

In the case of CC(=O)N1CCN(c2ccc(OC[C@@H]3CO[C@@](Cn4ccnc4)(c4ccc(Cl)cc4Cl)O3)cc2)CC1 [levoketoconazole], the “effect on QT interval (literature)” value [1] is given as “associated with QT interval prolongation”.

For COc1c(N2C[C@@H]3CCCN[C@@H]3C2)c(F)cc2c(=O)c(C(=O)O)cn(C3CC3)c12 [moxifloxacin, 1-cyclopropyl-7-[(S,S)-2,8-diazabicyclo[4.3.0]non-8-yl]-6-fluoro-8-methoxy-1,4-dihydro-4-oxo-3 quinoline carboxylic acid, reference compound], the “effect on QT interval (literature)” value [1] is listed as “prolong the QT interval of the electrocardiogram in some patients”, the “LS mean (90% CI) ΔΔQTcF, peak value” ([2]; 400 mg on day 5, 1.5 hours post-dose) is listed as 10.7 (7.3, 14.1) msec and the “QT effect of positive control” value ([2]; 400 mg single dose) is listed as “expected QT prolongation”. The “LS mean (90% CI) ΔQTcF” value ([2]; 400 mg single dose on day 5, 1 hour post-dose) was 5.7 (3.3, 8.2) msec, the “LS mean (90% CI) ΔQTcF, maximum observed value” ([2]; 400 mg single dose on day 5, 16 hours post-dose) was 9.7 (7.2, 12.2) msec and the “ΔΔQTcF Estimate (msec) (90% CI), predicted at geometric mean Cmax” value ([2]; 400 mg single dose, PK/QTc population) was 8.90 (5.96, 11.85)^2 msec. The “lower bound of the 90% CI around the LS mean ΔΔQTcF” value ([2]; 400 mg, at 4 of the 12 post-dose time points) was “exceeded 5 msec” and the Cmax [3] was 1870 ng/mL.

In the case of N#Cc1ccc([C@H]2CCc3cncn32)c(F)c1 [osilodrostat], the “effect on QT interval (literature)” value [1] is given as “associated with QT interval prolongation”.
